Assay results as given in article PMC5793121 (Toxins, 2018).
No end group written: not given here.

Test system: male and female ICR mice
Format: in vivo, mouse
Settings: 0.15 mg/kg subcutaneously, n = 10
Procedure: Allergenicity of Az was studied in a delayed-type hypersensitivity test on male (20 animals) and female (20 animals) adult ICR mice. The mice were divided into four groups (two control and two experimental groups) of 10 animals (males or females) per group. Mice of the experimental groups were injected subcutaneously at the base of a tail with Az solution (0.15 mg/kg) emulsified in Freund’s complete adjuvant in a ratio of 1:1 (2 mL/kg). Similarly, the mice in the control groups were administered with a suspension of normal saline in Freund’s complete adjuvant. Five days later all animals received an injection of Az (0.15 mg/kg, 1.33 mL/kg) in the pad of the left hind paw. To estimate the intensity of the studied allergic reaction, 6, 12 and 24 h after the second Az injection the thickness of the left and right hind mouse paws was measured with a digital caliper.

DNWWPKPPHQGPRPPRPRPKP-NH2 [Az, azemiopsin]
allergic effect in the delayed-type hypersensitivity reaction test: no allergic effect
